# Laboratory results taken from PubChem BioAssay (NCI).
#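 Interpolation was linear, between the two tested concentrations surrounding the appropriate level; five concentrations were tested over 48 hours in 96-well plates. Here, GI50 denotes the concentration required for 50% inhibition of growth. TGI marks complete inhibition of growth.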
# Legend:
# Experiment in all cases: DTP human tumour cell line panel, 48 h
# KM12 colon = tested on: KM12 colon
# HCT-15 colon = tested on: HCT-15 colon
# HOP-62 NSCLC = tested on: HOP-62 NSCLC
# HT29 colon = tested on: HT29 colon
# MCF7 breast = tested on: MCF7 breast
# NCI-H23 lung = tested on: NCI-H23 lung
# NCI-H522 lung = tested on: NCI-H522 lung
# HCC-2998 colon = tested on: HCC-2998 colon
# SNB-19 CNS = tested on: SNB-19 CNS
# LOX IMVI melanoma = tested on: LOX IMVI melanoma
SMILES,GI50 (KM12 colon) [µM],TGI (KM12 colon) [µM],GI50 (HCT-15 colon) [µM],TGI (HCT-15 colon) [µM],GI50 (HOP-62 NSCLC) [µM],TGI (HOP-62 NSCLC) [µM],GI50 (HT29 colon) [µM],TGI (HT29 colon) [µM],GI50 (MCF7 breast) [µM],TGI (MCF7 breast) [µM],GI50 (NCI-H23 lung) [µM],TGI (NCI-H23 lung) [µM],GI50 (NCI-H522 lung) [µM],TGI (NCI-H522 lung) [µM],GI50 (HCC-2998 colon) [µM],TGI (HCC-2998 colon) [µM],GI50 (SNB-19 CNS) [µM],TGI (SNB-19 CNS) [µM],GI50 (LOX IMVI melanoma) [µM],TGI (LOX IMVI melanoma) [µM]
NC(=O)NC(=O)CI,18.2,35.5,1.68,3.55,20.5,43.1,8.97,25.1,3.33,16.6,5.75,21,0.208,0.475,18.5,35.1,34,97.7,1.08,2.71
O=Cc1ccc(C(F)(F)F)cc1.[C-]#[O+].[C-]#[O+].[C-]#[O+].[Cr],24.6,91.5,26.1,82.7,46.6,> 100,22.6,54.3,24.7,> 100,37.1,> 100,23.7,> 100,53.6,> 100,26.7,89.6,26.2,> 100
O=Nc1c(-c2cccc([N+](=O)[O-])c2)nc2ncccn12,12.4,26.8,3.77,17.8,20.9,48.7,9.84,44.1,3.51,22.6,15.1,34.9,10.6,25.1,15.2,28.9,18,39.6,11.6,27
O=C1NC(=NCCc2ccccc2Cl)S/C1=C\c1ccc2ncccc2c1,2.5,> 25,1.18,> 25,6.26,> 25,2.79,> 18.9,1.32,> 25,6.06,> 25,4.13,12.3,6.33,> 25,7.4,> 25,1.57,> 25
Cn1c(=O)c(Cc2ccc(F)cc2F)cc2cnc(NC3CCOCC3)nc21,> 25,> 25,> 25,> 25,> 25,> 25,> 25,> 25,> 25,> 25,> 25,> 25,> 25,> 25,> 25,> 25,24.3,> 25,> 25,> 25
Cn1c2ccccc2c2c3c(c4c5ccccc5n(CCCCCC#N)c4c21)C(=O)N(O)C3=O,1.5,5.95,1.82,50.9,0.42,5.65,1.65,3.36,0.299,27.9,1.18,9.91,0.268,1.42,2.57,38.5,0.545,> 100,0.167,1.24
CSC(=S)N/N=C(\C)c1ccccn1,0.346,14.3,0.16,24.5,0.366,5.19,< 0.0394,18.1,< 0.0207,11.2,0.119,26.5,0.0339,0.368,0.509,16.2,0.77,> 72.3,0.206,12.6
Cc1nc2cc(O)c(O)cc2cc1Oc1ccc(NC(=O)Nc2ccc(Cl)c(Cl)c2)cc1,9.64,32,5.47,> 32.5,8.62,> 32.5,11.9,> 32.5,8.71,> 32.5,6.97,19.6,4.43,12.5,6.7,14.6,10.1,> 32.5,,
COc1ccc(C2CC(c3cc(OC)c(OC)c(OC)c3)=NN2)cc1 (centres undefined),4.49,> 100,3.48,> 100,28.7,99.2,3.91,> 100,2.78,27.1,12.9,> 100,3.43,35.9,9.35,37.2,15.6,> 100,5.52,> 100
COC(=O)c1ccc2c(c1)nc(-c1ccc(Cl)cc1)n2-c1cc(C(C)(C)C)[nH]n1,2.12,6.07,4.36,> 100,3.41,21,3.65,15.4,2.79,12.3,3.42,36,3.21,20.3,3.9,19.8,4.31,> 100,3.7,14.5
Fc1ccc(Nc2nc(Nc3ccc(-c4nc5ccccc5[nH]4)cc3)nc(N3CCCC3)n2)cc1,2.98,10,2.25,6.03,2.12,5.09,2.54,5.62,1.9,5.22,3.36,16.8,2.16,4.91,2.39,6.25,3.93,19.1,1.77,3.55
N#Cc1c2ccccc2c2nnc3cc(Cl)c(Cl)cc3n12,> 100,> 100,33,> 100,31.2,> 100,> 100,> 100,27.5,90.3,75.1,> 100,39.2,> 100,23,82.1,,,59.3,> 100
O=C(/C=N/O)c1c(-c2ccccc2)[nH]c(-c2ccccc2)c1-c1ccccc1,,28.2,,45.8,,> 100,,61,,39.7,,21.3,,30.8,,58.1,,34.2,,41.3
CC1=C(C)C(=O)C(C(C)C2=C(C)C(=O)C(C)=C(C)C2=O)=C(C)C1=O,40,> 100,15.2,> 100,> 100,> 100,,,29,> 100,21.6,> 100,30.5,> 100,57.1,> 100,,,19,> 100
Nc1nc(Cl)nc2c1ncn2C1O[C@H](CO)[C@@H](O)[C@@H]1F (some centres undefined),29.7,> 100,4.73,> 100,0.239,20.6,,> 100,0.185,> 100,,,,> 100,0.075,> 100,0.216,> 100,0.468,> 100
C=C1C(=O)O[C@H]2[C@H]1CC/C(Cn1cc(CCC)nn1)=C\CC[C@@]1(C)O[C@@H]21,17.6,34.1,2.9,12.3,14.1,27.8,5.5,18.2,3.35,15.4,13.6,32,3.06,10.7,15.1,32.9,18.8,38.1,3.9,16.9
CC(C)(C)c1ccc(-c2nnc(SCc3ccc(Cl)cc3)n2-c2cccc(C(F)(F)F)c2)cc1,,> 100,,> 100,,> 100,,> 100,,> 100,,> 100,,> 100,,> 62.4,,> 100,,> 100
COc1ccc(/C=C(/C(=O)N2CCNCC2)c2cc(OC)c(OC)c(OC)c2)cc1O,3.18,> 100,36.7,> 100,5.08,> 100,7.75,> 100,1.34,> 100,5.16,> 100,2.42,9.84,3.76,> 100,3.91,> 100,5.21,> 100
CC(C)[C@]12O[C@H]1[C@@H]1O[C@]13[C@]1(O[C@H]1C[C@H]1c4c(C(=O)c5ccccc5)oc(OC(=O)c5ccccc5)c4CC[C@@]13C)[C@@H]2O,0.226,3.78,0.0291,> 100,0.0278,0.735,0.0172,> 38,0.0139,19.9,< 0.0105,0.111,0.0169,0.0913,0.0378,0.355,0.176,36.6,0.0144,14.8
CCN(CCCl)CCNc1c2ccccc2nc2ccc(OC)cc12,,3.11,,3.39,,3.85,,2.13,,3.55,,2.12,,1.71,,2.15,,8.62,,2.14
COc1cc2c(/C=C3\C(=O)Nc4ccc(Br)cc43)c(Cl)n(C)c2cc1C,0.387,1.88,1.92,8.06,0.813,4.47,1.98,6.83,0.322,6.53,2.78,13,1.66,4.29,1.66,4.62,2.57,48.8,1.44,6.7
COc1ccccc1Nc1nc(-c2cc3cccc(C(F)(F)F)c3oc2=O)cs1,0.0723,22.3,0.151,> 100,0.134,29.7,0.126,11.9,0.0574,> 100,0.345,> 45.9,0.0402,1.51,0.344,> 47.7,1.15,> 100,0.14,> 82.2
Cn1cccc1-c1cc(-c2ccc(Br)cc2)nc(N)c1C#N,> 100,> 100,> 100,> 100,,,> 100,> 100,> 100,> 100,> 100,> 100,66,> 100,> 100,> 100,> 100,> 100,> 100,> 100
CCOC(=O)C(=Cc1ccccc1Br)C(=O)OCC,,4.06,,3.71,,> 100,,10.9,,> 100,,7.79,,4.3,,6.54,,6.01,,
COc1ccc(-n2c(N)c(C(=O)NCCN3CCOCC3)c3nc4ccccc4nc32)cc1OC,8.26,> 100,15,> 100,,,5.8,> 100,4.13,> 100,38.3,> 100,8.07,> 100,94.3,> 100,10.9,> 100,5.69,> 100
CNCCNc1nc2ccccc2c2c(=O)c3cccc(OC)c3sc12,1.62,3.11,0.829,2.15,1.25,2.92,0.652,2.28,1.17,2.59,1.48,3,1.34,3.1,1.55,3.18,,,1.27,2.63
CCCNc1nc(-c2ccc(OC)cc2)nc2ccccc12,14.6,30.8,14.3,31.9,14.9,31.2,,,19.5,> 100,18,45.9,22.3,> 100,13.6,34.4,34.8,> 100,18.4,37.5
